Data taken from patent publication US20070155673A1, “USE OF BVDU FOR INHIBITING THE GROWTH OF HYPERPROLIFERATIVE CELLS” (Celmed Oncology (USA), Inc., priority 1999, published 2007).

Experiments:
H630 R10 [1] = conditions: previously shown; cited from earlier work
Det 551 = test: Cyquant and crystal violet cytotoxicity; format: cell-based; conditions: for IC50: Det 551, normal embryonic skin, 72 hour incubation
Protocol: (§1) Cvquant and Crystal Violet Cytotoxicity Exponentially growing cells were transferred at a density of 1.0-4.0×10^3 cells per well to a 96-well tissue culture plate in growth medium (RPMI1640+10% FBS+antibiotics). Cells were allowed to attach for 24 hours in standard culture conditions (37° C., 5% CO2, 95% humidity). Experimental compounds were then applied in duplicate half log serial dilutions. After additional 72 hour incubation, surviving cells were stained with crystal violet (adherent cells) or Cyquant (semi or non—adherent cells). Absorbence or fluorescence, respectively, was monitored. IC50 values were derived from sigmoid curves fit according to the Hill inhibitory Emax model.
(§2) The selectivity of a given antitumor agent can be assessed by comparing the IC50 for a tumor cell line to the IC50 of a normal cell strain growing under the same conditions, determined and Cyquant staining for non-adherent cells, and crystal violet staining for adherent cells. The selectivity is given here as the ratio of normal cell IC50 to tumor cell IC50. In this case, normal cell IC50 is defined as the average of the value for CCD18co and Det551 to allow for direct comparison of the established cancer drug 5-FU with BVdU.

SKBR3 V = test: Cyquant and crystal violet cytotoxicity; format: cell-based; conditions: vector control, low TS, 72 hour incubation
Protocol: as §1, §2

SW527P = test: Cyquant and crystal violet cytotoxicity; format: cell-based; conditions: tumor - breast, parental control, 72 hour incubation
Protocol: as §1, §2

CCD18co = test: Cyquant and crystal violet cytotoxicity; format: cell-based; conditions: for IC50: CCD18co, normal colon epithelium, 72 hour incubation
Protocol: as §1, §2

SKBR3 #52 = test: Cyquant and crystal violet cytotoxicity; format: cell-based; conditions: for IC50: SKBR3 #52, tumor - breast, high TS transfectant, 72 hour incubation; for normal/tumor IC50 ratio: normal IC50 = average of CCD18co and Det551
Protocol: as §1, §2

SW527TDX = test: Cyquant and crystal violet cytotoxicity; format: cell-based; conditions: for normal/tumor IC50 ratio: normal IC50 = average of CCD18co and Det551; for IC50: tumor - breast, TDX resistant, high TS, 72 hour incubation
Protocol: as §1, §2

H630-R10 = test: Cyquant and crystal violet cytotoxicity; format: cell-based; conditions: for IC50: H630-R10, tumor - colon, 5-FU resistant, high TS, 72 hour incubation; for normal/tumor IC50 ratio: normal IC50 = average of CCD18co and Det551
Protocol: as §1, §2

MCF7 TDX [2] = test: Cyquant and crystal violet cytotoxicity; format: cell-based; conditions: for IC50: tumor - breast, TDX resistant, high TS, 72 hour incubation; for normal/tumor IC50 ratio: normal IC50 = average of CCD18co and Det551
Protocol: as §1, §2

MCF7 = test: Cyquant and crystal violet cytotoxicity; format: cell-based; conditions: for IC50: MCF7, tumor - breast, parental control, 72 hour incubation; for normal/tumor IC50 ratio: normal IC50 = average of CCD18co and Det551
Protocol: as §1, §2

H630 R10 [3] = test: alamarBlue cytotoxicity assay; format: cell-based; conditions: for IC50: alamarBlue, drug exposure 120 hours, 5-FU resistant colon tumor cell line
Protocol: (§3) alamarBlue cytotoxicity assay Tumor cells growing exponentially were transferred to 384 well flat bottom tissue culture plates. H630 R10 were plated at a density of 500 cells per well and MCF7 TDX at 250 cells/well in 25 μL of complete medium (RPMI 1640+10% fetal bovine serum+antibiotics/antimyotics). After 24 hours (day 0), 25 μL of complete medium containing the compounds (NB1011 or BVdU) over the dose range of 10^−3 to 10^−10 M were added in triplicate. Drug exposure time was 120 hours (day 5), after which growth inhibition was assayed. The redox indicator alamarBlue was added to each well at 10% (v/v). After 1-hour incubation at room temperature, fluorescence was monitored at 536 nm excitation and 595 nm emission. Concentration versus relative fluorescence units (RFU) was plotted, and sigmoid curves were fit using the Hill equation. IC50, indicated by the inflection point of the curve, is the concentration at which growth is inhibited by 50%.
(§4) H630 R10 is a colon cancer tumor cell line selected for resistance to 5-FU, and overexpresses thymidylate synthase protein approximately 20-fold. MCF7 TDX is a breast tumor cell line selected with Tomudex, and overexpresses thymidylate synthase to approximately the same extent.

MCF7 TDX [4] = test: alamarBlue cytotoxicity assay; format: cell-based; conditions: for IC50: alamarBlue
Protocol: as §3, §4

TKC HT1080 #5 = test: Sensitivity of thymidine kinase transfected HT1080 cell lines to BVdU; format: cell-based; conditions: Homo sapiens, HT-1080; TKC HT1080 #5, TK protein level 200 units
Source text: (§5) Cell lines that overexpress human thymidine kinase (TK) are also more sensitive to BVdU, providing another criterion for identification of tumor susceptibility to BVdU.

PC HT1080 = test: as above; format: cell-based; conditions: Homo sapiens, HT-1080; PC HT1080, TK protein level 100 units
Source text: as §5

TKC HT1080 #22 = test: as above; format: cell-based; conditions: Homo sapiens, HT-1080; TKC HT1080 #22, TK protein level 400 units
Source text: as §5

TS HT1080 #12 = test: Cyquant and crystal violet cytotoxicity; format: cell-based, human; conditions: for IC50: TS HT1080 #12, tumor - fibrosarcoma, high TS transfectant, 72 hour incubation; for normal/tumor IC50 ratio: normal IC50 = average of CCD18co and Det551
Protocol: as §1
Cell transfection. HT1080 cells were grown in RPMI1640 medium supplemented with 10% FBS, and transfected with TS expression vector. 48 hours later, transfected cells were trypsinized and replated in culture medium containing 750 μg/ml G418. After selection with G418 for two weeks, surviving cells were cloned. Clones with different TS levels were selected based on Western blot analysis, and expanded into cell lines. The stable HT1080 cells transfected with pcDNA3.1(−) only were used as control.
as §2

In the case of `O=c1[nH]c(=O)n([C@H]2C[C@H](O)[C@@H](CO)O2)cc1/C=C/Br` [BVdU, (E)-5-(2-bromovinyl)-2′-deoxyuridine], the “sensitivity of H630 R10 (in words)” value (H630 R10 [1]) is given as “insensitive”, the IC50 (Det 551) is given as 2190 ± 682 µM and the “anti-proliferative effect (in words)” value (Det 551; normal cell strain representing skin, even high concentrations) is given as “not affected”. The IC50 (SKBR3 V; Homo sapiens, SK-BR-3, tumor - breast) was over 1000 µM, the IC50 (SW527P) was over 1000 µM and the IC50 (CCD18co; Homo sapiens, CCD-18Co) was 4820 ± 128 µM. For the same compound, the “anti-proliferative effect (in words)” value (CCD18co; normal cell strain representing colon, even high concentrations) was “not affected”, the IC50 (SKBR3 #52; Homo sapiens, SK-BR-3) was 8.3 µM and the “times the 5-FU normal/tumor ratio” value (SKBR3 #52; SKBR3 #52) was 2,000 times. For the same compound, the “normal/tumor IC50 ratio” value (SKBR3 #52; SKBR3 #52) was 423, the “times the 5-FU normal/tumor ratio” value (SW527TDX) was 5,000 times and the “normal/tumor IC50 ratio” value (SW527TDX) was 540. The IC50 (SW527TDX) was 6.5 µM, the “times the 5-FU normal/tumor ratio” value (H630-R10; H630-R10) was 42 times and the IC50 (H630-R10) was 561 ± 157 µM. The “normal/tumor IC50 ratio” value (H630-R10; H630-R10) was 6.3, the “times the 5-FU normal/tumor ratio” value (MCF7 TDX [2]) was 18,000 times and the IC50 (MCF7 TDX [2]; Homo sapiens) was 0.6 ± 0.5 µM. The “normal/tumor IC50 ratio” value (MCF7 TDX [2]) was 5847, the IC50 (MCF7; Homo sapiens) was 1250 µM and the “selectivity relative to 5-FU” value (MCF7; MCF7) was “more than ten times as selective as 5-FU”. For the same compound, the “normal/tumor IC50 ratio” value (MCF7; MCF7) was 2.8, the “fold less active than NB1011” value (H630 R10 [3]; H630R10 cells, from IC50) was about 6 fold and the IC50 (H630 R10 [3]; Homo sapiens, NCI-H630) was 303 µM. For the same compound, the IC50 (MCF7 TDX [4]; Homo sapiens, MCF7, Tomudex resistant breast cancer cell line) was 0.005 µM, the IC50 (MCF7 TDX [4]; Homo sapiens, MCF7, drug exposure 120 hours, Tomudex resistant breast tumor cell line) was 0.005 µM and the “fold more active than NB1011” value (MCF7 TDX [4]; MCF7 TDX cells, from IC50) was about 25 fold. It also gave an IC50 (TKC HT1080 #5) of 275 µM, an IC50 (PC HT1080) of 303 µM and an IC50 (TKC HT1080 #22) of 162 µM. For the same compound, the IC50 (TS HT1080 #12; Homo sapiens, HT-1080) was 5.7 ± 1.8 µM, the “times the 5-FU normal/tumor ratio” value (TS HT1080 #12; TS HT1080 #12) was 961 times and the “normal/tumor IC50 ratio” value (TS HT1080 #12; TS HT1080 #12) was 615.

With `C[C@H](NP(=O)(OC[C@H]1O[C@@H](n2cc(/C=C/Br)c(=O)[nH]c2=O)C[C@@H]1O)Oc1ccccc1)C(=O)O` (stereo partly drawn) [NB1011, reference compound] the IC50 (H630 R10 [3]) was 57 µM and the IC50 (MCF7 TDX [4]; drug exposure 120 hours, Tomudex resistant breast tumor cell line) was 0.13 µM.

For `O=c1[nH]cc(F)c(=O)[nH]1` [5-FU, reference compound], the IC50 (Det 551) was 3.1 ± 0.5 µM, the IC50 (SKBR3 V; tumor - breast) was 7.4 ± 2.4 µM and the IC50 (SW527P) was 9.1 ± 1.3 µM. The IC50 (CCD18co) was 1.4 ± 0.4 µM, the IC50 (SKBR3 #52) was 9.1 ± 1.6 µM and the “normal/tumor IC50 ratio” value (SKBR3 #52; SKBR3 #52) was 0.24. The “normal/tumor IC50 ratio” value (SW527TDX) was 0.11, the IC50 (SW527TDX) was 20.4 ± 9.9 µM and the IC50 (H630-R10) was 143 ± 5.9 µM. For the same compound, the “normal/tumor IC50 ratio” value (H630-R10; H630-R10) was 0.15, the “normal/tumor IC50 ratio” value (MCF7 TDX [2]) was 0.33 and the IC50 (MCF7 TDX [2]) was 6.7 ± 2 µM. The IC50 (MCF7) was 8.8 ± 5.9 µM, the “normal/tumor IC50 ratio” value (MCF7; MCF7) was 0.25 and the IC50 (TS HT1080 #12) was 3.5 ± 0.2 µM. The “normal/tumor IC50 ratio” value (TS HT1080 #12; TS HT1080 #12) was 0.64.
